Results reported in patent US20060205679A1, “Topical and oral formulations of cardiac glycosides for treating skin diseases” (Azaya Therapeutics, Inc., priority 2004, published 2006).

Tests used:
[1] = tested on: cultered cancer cell lines; details: cited from earlier work
[2] = tested on: human malignant cell lines; details: rapidly proliferating normal cells not affected; cited from earlier work
[3] = tested on: androgen independent human prostate cancer cell lines; details: in-vitro; cited from earlier work
[4] = tested on: primary cultures of tumor cells from patients and a human cell line panel; details: cited from earlier work
[5] = in 50 ml of 9.6% solution of hydroxypropyl-β-cyclodextrin, 70 to 80° C.
Description: 200 mg of oleandrin was weighed and placed in a sterile test tube. The oleandrin was dissolved in 3 to 5 mL of purified absolute ethanol. […] The ethanolic solution of oleandrin was slowly added to the beaker with stirring. […] The solution was sterile-filtered through a 0.22 μm filter. The solution was frozen below −40° C. and lyophilized.
500 mg of digitoxin was weighed and placed in a sterile test tube. […] The ethanolic solution of digitoxin was slowly added to the beaker with stirring. […] The solution was sterile-filtered through a 0.22 μm filter. The solution was frozen below −40° C. and lyophilized.
200 mg of proscillaridin-A was weighed and placed in a sterile test tube and was dissolved in 5 to 10 mL of purified absolute ethanol. […] The ethanolic solution of proscillaridin-A was slowly added to the beaker with stirring. […] The solution was sterile filtered through a 0.22 μm filter. The solution was frozen below −40° C. and lyophilized.

AP-1 = details: cited from earlier work
[6] = tested on: FGF-2 release from DU145 cells; details: oleandrin 0.1 ng/mL; cited from earlier work
human cancer cells = details: cited from earlier work
murine cancer cells = details: cited from earlier work
[7] = tested on: c-Jun NH2-terminal kinase; details: cited from earlier work
NF-κB = details: cited from earlier work
[8] = tested on: FGF-2 release from PC3 cells; details: oleandrin 0.1 ng/mL; cited from earlier work
[9] = cited from earlier work

## CO[C@@H]1C[C@H](O[C@H]2CC[C@@]3(C)[C@H](CC[C@@]45O[C@@]46CC[C@H](C4=CC(=O)OC4)[C@@]6(C)CC[C@H]35)C2)O[C@H](C)[C@@H]1O [adynerin]
[1]
  anti-cancer activity: significant anti-cancer activity

## C[C@H]1O[C@@H](O[C@H]2[C@@H](O)C[C@H](O[C@H]3[C@@H](O)C[C@H](O[C@H]4CC[C@@]5(C)[C@H](CC[C@@H]6[C@@H]5CC[C@]5(C)[C@@H](C7=CC(=O)OC7)CC[C@]65O)C4)O[C@@H]3C)O[C@@H]2C)C[C@H](O)[C@@H]1O [digitoxin]
[2]
  growth and apoptosis at non-toxic concentrations: inhibit growth and induce apoptosis

## C[C@H]1O[C@@H](O[C@H]2[C@@H](O)C[C@H](O[C@H]3[C@@H](O)C[C@H](O[C@H]4CC[C@@]5(C)[C@H](CC[C@@H]6[C@@H]5C[C@@H](O)[C@]5(C)[C@@H](C7=CC(=O)OC7)CC[C@]65O)C4)O[C@@H]3C)O[C@@H]2C)C[C@H](O)[C@@H]1O [digoxin]
[3]
  induction of apoptosis: induce apoptosis
[4]
  selective toxicity against solid or hematological tumor cells from patients: selective toxicity against solid tumor cells
[2]
  growth and apoptosis at non-toxic concentrations: inhibit growth and induce apoptosis

## CO[C@H]1C[C@H](O[C@H]2CC[C@@]3(C)[C@H](CC[C@@H]4[C@@H]3CC[C@]3(C)[C@@H](C5=CC(=O)OC5)[C@@H](OC(C)=O)C[C@]43O)C2)O[C@@H](C)[C@@H]1O [oleandrin, 16β-acetoxy-3β-[(2,6 dideoxy-3-0-methyl-α2-L-arabino-hexopyranosyl)oxy]-14-hydroxy-5β, 14β-card-20(22)-enolide]
[5]
  amount effectively solubilized: 200 mg
AP-1
  AP-1 activation induced by TNF and other stimuli: blocked
[1]
  anti-cancer activity: significant anti-cancer activity
[6]
  inhibition of FGF-2 release: 49.9%
Human cancer cells
  ability to kill human cancer cells: able to kill
Murine cancer cells
  toxicity to murine cancer cells: not toxic
[3]
  induction of apoptosis: induce apoptosis
[7]
  TNF induced activation of c-Jun NH2-terminal kinase: inhibited
NF-κB
  NF-κB activation induced by phorbol esters and bacterial lipopolysaccharide: blocked
  NF-κB-dependent reporter gene transcription activated by TNF: suppressed
NF-κB; concentration and time dependent
  TNF induced activation of NF-κB: blocked
[8]
  inhibition of FGF-2 release: 45.7%
[9]; ethanol and chloroform
  solubility in organic solvents: soluble
[9]; heat
  stability with respect to heat: heat stable
[9]; light
  stability with respect to light: unstable
[9]; water
  solubility in water: almost insoluble

## C[C@@H]1O[C@@H](O[C@H]2C[C@@H](O)[C@]3(CO)[C@H]4[C@H](O)C[C@]5(C)[C@@H](C6=CC(=O)OC6)CC[C@]5(O)[C@@H]4CC[C@]3(O)C2)[C@H](O)[C@H](O)[C@H]1O [ouabain]
[3]
  induction of apoptosis: induce apoptosis

## C[C@@H]1O[C@@H](O[C@@H]2C=C3CC[C@@H]4[C@H](CC[C@]5(C)[C@@H](c6ccc(=O)oc6)CC[C@]45O)[C@@]3(C)CC2)[C@H](O)[C@H](O)[C@H]1O [proscillaridin-A, Proscillaridin A, reference compound]
[5]
  amount effectively solubilized: 200 mg
[4]
  selective toxicity against solid or hematological tumor cells from patients: no selective toxicity

## C[C@H]1[C@H](C)CC[C@]2(C(=O)O)CC[C@]3(C)C(=CC[C@@H]4[C@@]5(C)CC[C@H](O)C(C)(C)[C@@H]5CC[C@]43C)[C@H]12 [ursolic acid]
[1]
  anti-cancer activity: significant anti-cancer activity
